These results are taken from patent US9796717B2, “Tricyclic heterocycles as anticancer agents” (ICAHN SCHOOL OF MEDICINE AT MOUNT SINAI, priority 2013, dated 2017).

For orientation: IC50 means the concentration that gives 50% inhibition.

For one assay, the system named is CD4 naïve cells. Put plainly: Induction of Treg (Foxp3+) from naïve CD4 T cells. Type of assay: cell-based. The note with it: control compounds, concentration not given; 3 days. On the procedure:
Example 30 has been tested for its ability to induce Treg from naïve CD4 T cells. […] Fifty thousand CD4 naïve cells (CD62Lhi,CD25 low, CD4 positive) were incubated with 2 ng/mL TGFβ, 1 ug/mL anti-CD3, 100 ng/mL IL-2, 50000 APCs per well and the compounds 10 μM, 5 μM and 2.5 μM concentrations. The cells were incubated for 3 days and then stained for CD4 and Foxp3 expression. Results were expressed as fold increase over the % induced in control (DMSO) wells (typically 20-25% Foxp3+). AKTi, a small molecule AKT inhibitor, was used as a positive control; it induced about a 4-fold increase. […] The effects of Example 30 on iTreg induction are amplified as the TGFβ concentration decreases.

The test system of assay [1] is H1650 lung cancer cells. More on the design: % @ 20 μM: scale not given here. The following applies: cited from earlier work; for IC50: examples up to number 80 taken from PCT WO2013/025882, read-out: IC50 (μM), Cell Viability Data.
Assay [2] deals with BALB/c hearts transplanted into fully allogeneic B6 recipients. Description: Heart allograft survival. Type of assay: in vivo, mice. The note with it: 100 mg/kg i.p.; n=4; untreated rejected by day 8; p<0.05 vs control. On the procedure:
To test for a clinically relevant in vivo effect, BALB/c hearts were transplanted into fully allogeneic B6 recipients. While untreated animals rejected their grafts by day 8 n=4, the grafts in the mice treated with 100 mg/kg i.p. of Example 30 lasted 18 days n=4, p<0.05 vs control, a statistically and clinically significant effect.

In another assay the test system is EGFR-L858R/CCSP mice. Description: In vivo lung cancer model (MRI tumor volume). The note with it: 100 mg/kg i.p. every other day for two weeks; DMSO control 20% increase. On the procedure: The in vivo lung cancer model is described in Politi et al., Genes Dev. Jun. 1, 2006 20: 1496-1510. EGFR-L858R/CCSP mice were fed doxycycline-impregnanted food pellets to induce tumor formation. After 8-12 weeks, mice were imaged in a Bruker 4.7T Biospec scanner to confirm lung nodule development. After tumor confirmation, the compound of Example 30 was prepared in DMSO (Sigma) and administered i.p. at 100 mg/kg every other day for two weeks. After treatment, the mice were re-imaged by MRI, and pre-treatment and post-treatment lung volumes were calculated by visible lung opacity present in each axial image using Osirix 4.1.1. DMSO control animals show a 20% increase in tumor volume over two week treatment period. Animals treated with the compound of Example 30 show a 60% decrease in tumor volume over two week treatment period.

Assay [3] has as its system H1650 lung cancer cells. Put plainly: Cell viability assay (MTT, IC50 determination). Type of assay: cell-based. The note with it: Homo sapiens, NCI-H1650, 48 h after drug treatment, examples 100-103. On the procedure:
Cell Viability Assays (IC50 Determination)
Cell viability assays were performed according to Denizot, F. and R. Lang, Journal of Immunological Methods, 1986. 89(22): p. 271-277. H1650 lung cancer cells were plated at 150,000 cells per well in a 12 well plate. Twenty-four hours after plating, cells were treated as described with increasing concentrations of drug and control. Forty-eight hours after drug treatment, cells were treated with 100 μL of 3-(4,5-Dimethylthiazol-2-yl)-2,5-diphenyltetrazolium bromide (MTT) and incubated for 2 hours at 37 C. The MTT solution was subsequently replaced with 300 μl of n-propyl alcohol and re-aliquoted to a 96 well plates. Spectrophotometric analysis of each solution was performed using a 96 well plate reader at 600 nm in triplicate. The examples up to number 80 in Table 1 below are taken from PCT WO2013/025882, published 21 Feb. 2013. They illustrate biological activities of compounds that share a tricyclic scaffold.

Where two headings read alike, the source gives them in different places.

For the molecule `O=C(CCCN1CCC(O)(c2ccc(Cl)cc2)CC1)c1ccc(F)cc1` [Haloperidol], the “fold increase in iTreg over control (DMSO) wells” value in the assay on CD4 naïve cells is reported as “did not induce a statistically significant increase”. `O=S(=O)(NCCCN1c2ccccc2CCc2ccc(Cl)cc21)c1cnc(Cl)c(Br)c1` [Example 63, 5-Bromo-6-chloro-N-(3-(3-chloro-10,11-dihydro-5H-dibenzo[b,f]azepin-5-yl)propyl)pyridine-3-sulfonamide]: the “% @ 20 μM” value in the assay with H1650 lung cancer cells [1] (20 μM, taken from PCT WO2013/025882) is listed as 65% @ 20. As for `O=S(=O)(NCCCN1c2ccccc2CCc2ccc(Cl)cc21)c1ccc(OC(F)(F)F)cc1` [Example 30, N-(3-(3-chloro-10,11-dihydro-5H-dibenzo[b,f]azepin-5-yl)propyl)-4-(trifluoromethoxy)benzenesulfonamide], the graft survival in assay [2] is 18 days. In addition, in the assay on EGFR-L858R/CCSP mice, the “decrease in tumor volume over two week treatment period” value turned out to be 60%. `O=S(=O)(NCCCN1c2ccccc2CCc2ccc(Cl)cc21)c1cc(F)cc(F)c1` [Example 13, N-(3-(3-chloro-10,11-dihydro-5H-dibenzo[b,f]azepin-5-yl)propyl)-3,5-difluorobenzenesulfonamide]: the IC50 in the assay with H1650 lung cancer cells [1] (MTT, 48 h after drug treatment) was 18 µM.

Take `O=S(=O)(NCCCN1c2ccccc2CCc2ncccc21)c1ccc(OC(F)(F)F)cc1` [Example 102, N-(3-(10,11-Dihydro-5H-benzo[b]pyrido[2,3-f]azepin-5-yl)propyl)-4-(trifluoromethoxy)benzenesulfonamide]: the IC50 in the assay with H1650 lung cancer cells [3] was 30 µM. On to `O=S(=O)(N[C@H]1CCC[C@H](N2c3ccccc3CCc3ccccc32)C1)c1ccc(OC(F)(F)F)cc1` (relative stereo) [Example 73 trans, trans-N-(3-(10,11-dihydro-5H-dibenzo[b,f]azepin-5-yl)cyclohexyl)-4-(trifluoromethoxy)benzenesulfonamide], for which the IC50 in the assay with H1650 lung cancer cells [1] (MTT, 48 h after drug treatment) is 15 µM. In the case of `Cc1ccc(S(=O)(=O)NCCN2c3ccccc3Sc3ccc(Cl)cc32)cc1` [Example 18, N-(2-(2-chloro-10H-phenothiazin-10-yl)pethyl)4-methylbenzenesulfonamide], the IC50 in the assay with H1650 lung cancer cells [1] (MTT, 48 h after drug treatment) was 24.4 µM.

In the assay with H1650 lung cancer cells [3], `O=S(=O)(NCCCN1c2ccccc2CCc2cccnc21)c1ccc(Cl)cc1` [Example 101, N-(3-(5H-Benzo[b]pyrido[3,2-f]azepin-11(6H)-yl)propyl)-4-chlorobenzenesulfonamide] displayed a half-inhibitory concentration (IC50) of 25 µM. Consider `O=S(=O)(NCCCN1c2ccccc2CCc2ccc(Cl)cc21)c1ccc(Cl)cc1F` [Example 28, N-(3-(3-chloro-10,11-dihydro-5H-dibenzo[b,f]azepin-5-yl)propyl)-4-chloro-2-fluorobenzenesulfonamide], for which, in the assay on H1650 lung cancer cells [1] (MTT, 48 h after drug treatment, examples up to number 80 taken from PCT WO2013/025882), the “IC50 (μM), Cell Viability Data” value is on record as “INACTIVE”. `O=S(=O)(NCCCN1c2ccccc2CCc2ncccc21)c1ccc(Cl)cc1` [Example 103, 4-Chloro-N-(3-(10,11-dihydro-5H-benzo[b]pyrido[2,3-f]azepin-5-yl)propyl)benzenesulfonamide] yielded a 50% inhibitory concentration (IC50) in the assay with H1650 lung cancer cells [3] of 30 µM.

On to `O=S(=O)(NCCCN1c2ccccc2CCc2cccnc21)c1ccc(OC(F)(F)F)cc1` [Example 100, N-(3-(5H-Benzo[b]pyrido[3,2-f]azepin-11(6H)-yl)propyl)-4-(trifluoromethoxy)benzenesulfonamide], for which the concentration for half-maximal inhibition (IC50) in the assay on H1650 lung cancer cells [3] came out at 20 µM. For `O=S(=O)(N[C@H]1CCC[C@@H](N2c3ccccc3CCc3ccccc32)C1)c1ccc(OC(F)(F)F)cc1` (relative stereo) [Example 73 cis, cis-N-(3-(10,11-dihydro-5H-dibenzo[b,f]azepin-5-yl)cyclohexyl)-4-(trifluoromethoxy)benzenesulfonamide], in the assay with H1650 lung cancer cells [1] (MTT, 48 h after drug treatment), the IC50 was 5 µM. With `O=S(=O)(NCCC=C1c2ccccc2Sc2ccccc21)c1ccc(OC(F)(F)F)cc1` [Example 50, N-(3-(9H-thioxanthen-9-ylidene)propyl)-4-(trifluoromethoxy)benzenesulfonamide], the 50% inhibitory concentration (IC50) in the assay with H1650 lung cancer cells [1] (MTT, 48 h after drug treatment) is around 15 µM.
